Assay results published in patent publication US9321764B2, “Dihydro-pyrrolopyridinone inhibitors” (AbbVie Inc., priority 2013, dated 2016).

Legend:
[1] = target: T1, BRD4 (BDI_K57-E168) (Homo sapiens, UniProt O60885); assay: TR-FRET bromodomain binding assay, first bromodomain of BRD4; settings: His-tagged BD1, 100 nM Alexa647 probe; TR-FRET protocol A-E given per row
T1 construct: BD1: amino acids K57-E168; made in house
Summary of the method: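 Ki values come from IC50s (4-parameter logistic) corrected for probe Kd and concentration, normalised to no-compound and 1 μM unlabelled probe controls. Probe displacement by TR-FRET used 8 nM BD1 (K57-E168), 100 nM Alexa647 probe, 1 nM Eu-anti-His, 20 mM phosphate pH 6.0, 2% DMSO, 1 h, room temperature.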

[2] = target: T2, BRD4 (BDII_E352-M457) (Homo sapiens, UniProt O60885); assay: TR-FRET bromodomain binding assay, second bromodomain of BRD4; settings: His-tagged BD2, 30 nM Alexa647 probe; TR-FRET protocol A-E given per row
T2 construct: proliferation; Protocol; made in house
Summary of the method: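 His-tagged BRD4 BD2 ([…]) competed against an Alexa647-labelled BET-inhibitor probe in TR-FRET. Buffer was 20 mM sodium phosphate pH 6.0, 50 mM NaCl, 1 mM EDTA, 0.01% Triton X-100, 1 mM DTT, with method D DMSO series of 2.5 mM–800 nM (stock range). IC50 from 4-parameter fit, Ki from probe Kd and concentration.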

[3] = tested on: breast cancer cell line MX-1; assay: MX-1 cell line proliferation assay; type: cell-based; settings: Homo sapiens, MX1, 72 h, MX-1 cells, 3-day proliferation assay, Cell Titer Glo; read-out: Cellular proliferation EC50
Summary of the method: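 Final compound concentrations spanned 0.0001 to 3 μM, added to 5000 cells/well plated the previous night in RPMI 1640 plus 10% FBS at 37 °C.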

Structure (SMILES)	Ki [1] [nM]	Ki [2] [nM]	EC50 [3] [nM]
Cn1cc(-c2cc(CNS(=O)(=O)C3CCCC3)ccc2Oc2ccc(F)cc2F)c2cc[nH]c(=O)c21 [Example 137, N-[4-(2,4-difluorophenoxy)-3-(1-methyl-7-oxo-6,7-dihydro-1H-pyrrolo[2,3-c]pyridin-3-yl)benzyl]cyclopentanesulfonamide]	106	374	872
Cc1oncc1S(=O)(=O)NCc1ccc(Oc2ccc(F)cc2F)c(-c2cn(C)c3c(=O)[nH]ccc23)c1 [Example 139, N-[4-(2,4-difluorophenoxy)-3-(1-methyl-7-oxo-6,7-dihydro-1H-pyrrolo[2,3-c]pyridin-3-yl)benzyl]-5-methyl-1,2-oxazole-4-sulfonamide]	129	525	> 3000
Cc1noc(C)c1S(=O)(=O)NCc1ccc(Oc2ccc(F)cc2F)c(-c2cn(C)c3c(=O)[nH]ccc23)c1 [Example 140, N-[4-(2,4-difluorophenoxy)-3-(1-methyl-7-oxo-6,7-dihydro-1H-pyrrolo[2,3-c]pyridin-3-yl)benzyl]-3,5-dimethyl-1,2-oxazole-4-sulfonamide]	490	817	1820
Cn1cc(-c2cc(S(=O)(=O)N3CCCC3)ccc2O[C@H]2CC[C@H](N(C)C)CC2)c2cc[nH]c(=O)c21 [Example 144, 3-[2-{[trans-4-(dimethylamino)cyclohexyl]oxy}-5-(pyrrolidin-1-ylsulfonyl)phenyl]-1-methyl-1,6-dihydro-7H-pyrrolo[2,3-c]pyridin-7-one]	8.2	107	73.1
Cn1cc(-c2cc(NC(=O)c3cc(Cl)ccc3Cl)ccc2Oc2ccc(F)cc2F)c2cc[nH]c(=O)c21 [Example 148, 2,5-dichloro-N-[4-(2,4-difluorophenoxy)-3-(1-methyl-7-oxo-6,7-dihydro-1H-pyrrolo[2,3-c]pyridin-3-yl)phenyl]benzamide]	65.1	150	170
Cc1cnc(C(=O)Nc2ccc(Oc3ccc(F)cc3F)c(-c3cn(C)c4c(=O)[nH]ccc34)c2)cn1 [Example 151, N-[4-(2,4-difluorophenoxy)-3-(1-methyl-7-oxo-6,7-dihydro-1H-pyrrolo[2,3-c]pyridin-3-yl)phenyl]-5-methylpyrazine-2-carboxamide]	16.1	32	200
CC(=O)Nc1ccc(C(=O)Nc2ccc(Oc3ccc(F)cc3F)c(-c3cn(C)c4c(=O)[nH]ccc34)c2)cc1 [Example 155, 4-(acetylamino)-N-[4-(2,4-difluorophenoxy)-3-(1-methyl-7-oxo-6,7-dihydro-1H-pyrrolo[2,3-c]pyridin-3-yl)phenyl]benzamide]	27.8	163	310
Cc1cccnc1CNc1ccc(Oc2ccc(F)cc2F)c(-c2cn(C)c3c(=O)[nH]ccc23)c1 [Example 169, 3-[2-(2,4-difluorophenoxy)-5-{[(3-methylpyridin-2-yl)methyl]amino}phenyl]-1-methyl-1,6-dihydro-7H-pyrrolo[2,3-c]pyridin-7-one]	26.5	107	132
Cn1cc(-c2cc(NCc3cn4c(n3)CCC4)ccc2Oc2ccc(F)cc2F)c2cc[nH]c(=O)c21 [Example 176, 3-{2-(2,4-difluorophenoxy)-5-[(6,7-dihydro-5H-pyrrolo[1,2-a]imidazol-2-ylmethyl)amino]phenyl}-1-methyl-1,6-dihydro-7H-pyrrolo[2,3-c]pyridin-7-one]	42.3	101	289
Cn1cc(-c2cc(NS(=O)(=O)Cc3cc(F)ccc3Cl)ccc2Oc2ccc(F)cc2F)c2cc[nH]c(=O)c21 [Example 181, 1-(2-chloro-5-fluorophenyl)-N-[4-(2,4-difluorophenoxy)-3-(1-methyl-7-oxo-6,7-dihydro-1H-pyrrolo[2,3-c]pyridin-3-yl)phenyl]methanesulfonamide]	65.8	128	> 1000
CCS(=O)(=O)Nc1ccc(Oc2ccc(F)cc2F)c(-c2cn(C)c3c(=O)[nH]c(C4CCNCC4)cc23)c1 [Example 183, N-{4-(2,4-difluorophenoxy)-3-[1-methyl-7-oxo-5-(piperidin-4-yl)-6,7-dihydro-1H-pyrrolo[2,3-c]pyridin-3-yl]phenyl}ethanesulfonamide]	2.63	13.4	356
CCS(=O)(=O)Nc1cnc(Oc2ccc(F)cc2F)c(-c2cn(C)c3c(=O)[nH]ccc23)c1 [Example 184, N-[6-(2,4-difluorophenoxy)-5-(1-methyl-7-oxo-6,7-dihydro-1H-pyrrolo[2,3-c]pyridin-3-yl)pyridin-3-yl]ethanesulfonamide]	5.31	4.72	309
CCS(=O)(=O)Nc1ccc(Oc2ccc(F)cc2F)c(-c2cn(C)c3c(=O)[nH]c(C4CCN(C(=O)C5CC5)CC4)cc23)c1 [Example 185, N-[3-{5-[1-(cyclopropylcarbonyl)piperidin-4-yl]-1-methyl-7-oxo-6,7-dihydro-1H-pyrrolo[2,3-c]pyridin-3-yl}-4-(2,4-difluorophenoxy)phenyl]ethanesulfonamide]	4.29	7.94	61.4
CCS(=O)(=O)Nc1ccc(Oc2ccc(F)cc2F)c(-c2cn(C)c3c(=O)[nH]c(C4CCN(S(=O)(=O)CC)CC4)cc23)c1 [Example 186, N-[4-(2,4-difluorophenoxy)-3-{5-[1-(ethylsulfonyl)piperidin-4-yl]-1-methyl-7-oxo-6,7-dihydro-1H-pyrrolo[2,3-c]pyridin-3-yl}phenyl]ethanesulfonamide]	0.38	0.82	13.4
CCS(=O)(=O)Nc1ccc(Oc2ccc(F)cc2F)c(-c2cn(C)c3c(=O)[nH]c(C(=O)NCCCn4ccnc4)cc23)c1 [Example 187, 3-{2-(2,4-difluorophenoxy)-5-[(ethylsulfonyl)amino]phenyl}-N-[3-(1H-imidazol-1-yl)propyl]-1-methyl-7-oxo-6,7-dihydro-1H-pyrrolo[2,3-c]pyridine-5-carboxamide]	1.21	2.02	64.7

The next lines start with the values.

Ki [1] [nM]	Ki [2] [nM]	EC50 [3] [nM]	Structure (SMILES)
64	495	980	Cn1cc(-c2cc(CNS(=O)(=O)c3ccccc3)ccc2Oc2ccc(F)cc2F)c2cc[nH]c(=O)c21 [Example 141, N-[4-(2,4-difluorophenoxy)-3-(1-methyl-7-oxo-6,7-dihydro-1H-pyrrolo[2,3-c]pyridin-3-yl)benzyl]benzenesulfonamide]
1760	828	1590	Cn1cc(-c2cc(NC(=O)Cc3cccc(Oc4ccccc4)c3)ccc2Oc2ccc(F)cc2F)c2cc[nH]c(=O)c21 [Example 154, N-[4-(2,4-difluorophenoxy)-3-(1-methyl-7-oxo-6,7-dihydro-1H-pyrrolo[2,3-c]pyridin-3-yl)phenyl]-2-(3-phenoxyphenyl)acetamide]
32.8	156	338	Cn1cc(-c2cc(NCc3ccc(C#N)cc3)ccc2Oc2ccc(F)cc2F)c2cc[nH]c(=O)c21 [Example 167, 4-({[4-(2,4-difluorophenoxy)-3-(1-methyl-7-oxo-6,7-dihydro-1H-pyrrolo[2,3-c]pyridin-3-yl)phenyl]amino}methyl)benzonitrile]
216	1100	1020	Cn1cc(-c2cc(NCc3ccc(OCc4ccccc4)cc3)ccc2Oc2ccc(F)cc2F)c2cc[nH]c(=O)c21 [Example 170, 3-[5-{[4-(benzyloxy)benzyl]amino}-2-(2,4-difluorophenoxy)phenyl]-1-methyl-1,6-dihydro-7H-pyrrolo[2,3-c]pyridin-7-one]
176	384	198	Cc1nn(-c2ccccc2)c(Cl)c1CNc1ccc(Oc2ccc(F)cc2F)c(-c2cn(C)c3c(=O)[nH]ccc23)c1 [Example 171, 3-[5-{[(5-chloro-3-methyl-1-phenyl-1H-pyrazol-4-yl)methyl]amino}-2-(2,4-difluorophenoxy)phenyl]-1-methyl-1,6-dihydro-7H-pyrrolo[2,3-c]pyridin-7-one]
133	248	> 3000	COc1cccc(CNc2ccc(Oc3ccc(F)cc3F)c(-c3cn(C)c4c(=O)[nH]ccc34)c2)c1OCc1ccccc1 [Example 177, 3-[5-{[2-(benzyloxy)-3-methoxybenzyl]amino}-2-(2,4-difluorophenoxy)phenyl]-1-methyl-1,6-dihydro-7H-pyrrolo[2,3-c]pyridin-7-one]
30.8	239	233	Cn1cc(-c2cc(NCc3ccccc3C#N)ccc2Oc2ccc(F)cc2F)c2cc[nH]c(=O)c21 [Example 178, 2-({[4-(2,4-difluorophenoxy)-3-(1-methyl-7-oxo-6,7-dihydro-1H-pyrrolo[2,3-c]pyridin-3-yl)phenyl]amino}methyl)benzonitrile]
34.9	59.3	> 1000	Cn1cc(-c2cc(NS(=O)(=O)Cc3ccccc3)ccc2Oc2ccc(F)cc2F)c2cc[nH]c(=O)c21 [Example 180, N-[4-(2,4-difluorophenoxy)-3-(1-methyl-7-oxo-6,7-dihydro-1H-pyrrolo[2,3-c]pyridin-3-yl)phenyl]-1-phenylmethanesulfonamide]
